Laboratory results reported in ChEMBL document CHEMBL3507680, “University of Dundee, Gates Library screen for HepG2 cell viability”.

Assay: Human HepG2 cell viability assay in 384 well format
Type: toxicity, cell-based
Set-up: dose 125 nL, time 70.5 hour; cytotoxicity at 70.5 h: concentration not given beside the values
Conditions: HepG2 cells, read-out: Inhibition

Compound	cytotoxicity at 70.5 h
CCn1cnnc1CNC(=O)N1CCN(c2ccccc2O)CC1	-13.9%
COCCOc1ccc(NC(=O)N(C(C)C)C2CC2)cn1	-3.25%
COc1cccc2c1OCC(NCCc1cnn(-c3ccccc3)c1)C2 (stereo not drawn)	-8.4%
Cc1cc(NCCO)nc2[nH]nc(N)c12	-14.9%
CC(C)OCCN1CCC(C(=O)c2cc(F)ccc2F)CC1	25%
CN(CCn1cccn1)S(=O)(=O)c1cccc(F)c1C#N	-9.35%
CC(C)(C)SCC(=O)Nc1cc(-n2nnnc2C2CC2)ccc1F	10.5%
CCc1nc(C(=O)N2CCN(C)c3ccccc32)c[nH]1	-9.6%
CC(C)(C)c1ncc(C(=O)NCCS(N)(=O)=O)s1	-1.37%
CCN1CCCC(O)(c2nc(C)c(CCOc3ccccc3F)s2)CC1 (stereo not drawn)	-8.35%
CN(Cc1nc2ccccc2n1C)CC1CCCN1c1cccnn1 (stereo not drawn)	-11.1%
COc1ccc(C(C)N2CCC(C(=O)N(C)C)CC2)cc1Cl (stereo not drawn)	-7.99%
CN(C)C(=O)c1cccc(NC(=O)Cc2cc(F)ccc2F)n1	1.76%
Cc1cc(S(=O)(=O)NC(=O)CCc2cccnc2)c(C)s1	1.22%
CCc1n[nH]c(C2CN(C(=O)c3cc4c(s3)CCCC4)CCO2)n1 (stereo not drawn)	4.71%
CNc1nc(CNC(=O)Nc2cccc(Cl)c2Cl)cs1	-1.34%
O=C(CC1CCCCC1)N1C[C@H]2CC[C@@H]1CN(Cc1cccnc1)C2	-13.3%
Cc1ncsc1C(=O)NCCNC(=O)Cc1cccc(F)c1	-6.49%
Cc1cc(NC(=O)NCC(c2ccsc2)N(C)C)n(C)n1 (stereo not drawn)	-10.2%
CCOc1ccccc1CC(=O)N1CCCC(c2ncc[nH]2)C1 (stereo not drawn)	-0.431%
CCn1ncnc1C(C)Nc1cc(C2CC2)ncn1 (stereo not drawn)	-13%
O=C1CC2(CCN(C(=O)c3ccccn3)CC2)Oc2c(Br)cc(Br)cc21	1.74%
O=C(CN1CCOCC1)N1CCC2(CCCN(C3CCOCC3)C2=O)C1 (stereo not drawn)	0.199%

Compound	cytotoxicity at 70.5 h
CC(CN1CCOC1=O)NC(=O)c1ccccc1Oc1ccccc1 (stereo not drawn)	27.1%
COC[C@@H]1CCC[C@@]12CN(Cc1ccc(C)s1)CCO2	48.9%
O=C(c1ccccc1)N1C[C@@H]2CC[C@H](C1)N(Cc1cc(F)ccc1Cl)C2	27%
Cc1ccc(C(=O)Nc2ccn(CCC(N)=O)n2)cc1	-3.18%
CN(C)[C@H]1CCCCN(C(=O)c2cccc(N3CCS(=O)(=O)CC3)c2)C1	-8.16%
O=C(c1ccc2c(c1)OCO2)N1CCCC(Nc2ccc(F)cc2)C1 (stereo not drawn)	-2.98%
COC(=O)C1CN(Cc2nc(C(C)(C)C)cs2)C[C@@H](C)O1 (stereo partly drawn)	-7.31%
CCc1ccc(CN2CCC3(CC2)C(=O)N(C)CCN3CC)cc1	-10.4%
Cc1ccc(CN2CC[C@H]3[C@H](CC(Cn4cccn4)N3C)C2)s1 (stereo partly drawn)	15.9%
COc1ccc(C)c2c1N(C(=O)c1ccc3nnc(C)n3c1)CCC2	-2.94%
COCCn1cc(C(=O)N2CCCC2c2noc(C)n2)ccc1=O (stereo not drawn)	40.8%
O=C(NCCO)Nc1c(F)cc(F)cc1-c1ccccc1	-10.7%
CN(C)C(=O)N1CC2(CCN(S(=O)(=O)C3CC3)CC2)c2ccccc21	0.848%
Cn1cc(C2CCCN2C(=O)c2cnc(-c3cccs3)s2)cn1 (stereo not drawn)	22.5%
Cc1nn(C)c(C)c1C1CCCN1C(=O)c1nccnc1N (stereo not drawn)	-8.84%
CN(C)C(=O)c1n[nH]c2c1CN(CC1CCC1)C2	-1.39%
O=C1CN(CCCNS(=O)(=O)c2cccc(C(=O)NC3CC3)c2)CCN1	-5.93%
O=C(c1ccco1)N1CCc2onc(CN3CCCC3)c2C1	7.25%
COCC1CC2(CCN(Cc3ccoc3)CC2)CN1C(C)C (stereo not drawn)	-9.47%
COc1cc(F)ccc1-c1nc2c([nH]1)c(C1CC1)nn2C	-10.9%
CC(=O)N1CCCC(c2ccccn2)C1 (stereo not drawn)	8.66%
O=C(CS(=O)(=O)C1CCCC1)NC(c1ccc(F)cc1)C1CC1 (stereo not drawn)	1.6%
CN1CC(=O)N(c2ccccc2)CC12CCN(CC1CCOCC1)C2 (stereo not drawn)	22.5%

Compound	cytotoxicity at 70.5 h
Cc1ccc(C(=O)N2CCOC(c3nc(-c4ncccn4)no3)C2)cc1 (stereo not drawn)	-2.85%
Cc1noc(C)c1CN1CCO[C@H]2CNC[C@H]21	-6.78%
CN(C)[C@@H]1CCN(C(=O)c2ccsc2)[C@H]1Cc1cccnc1	2.91%
COCCN1CCN(C(C(=O)O)c2ccc(SC)cc2)CC1 (stereo not drawn)	-5.21%
CC(C)(C)n1cc(CNC2CCN(C(=O)c3ccoc3)CC2)cn1	-1.77%
CN(C)C(=O)N1CCc2onc(C(=O)Nc3cccnc3)c2C1	-19.2%
Cc1cccc(NC(=O)NC2CCN(C3CCOC3)CC2)c1 (stereo not drawn)	3.03%
Cn1nc(Cn2cccc2)c2c1CN(Cc1ccoc1)C2	21.4%
CC(=O)N1CCCc2cc(NC(=O)NCCc3cnn(C)c3)ccc21	-2.87%
Cc1ncsc1C(=O)NCc1cccnc1N(C)CCc1ccccn1	-5.9%
CCOC1CCCN(C(=O)NCCc2ccn(-c3ccccc3)n2)C1 (stereo not drawn)	9.56%
CS(=O)(=O)N1C[C@@H](NC(=O)c2ccno2)[C@@H]2OCCC[C@@H]21	-12.2%
CCc1nc(CN2CCN(c3ncnc4cc(F)ccc34)CC2)no1	24.8%
O=C(NCc1ccccn1)[C@@H]1COC[C@H]2CN(C3CCOCC3)C[C@H]21	2.68%
OCC1CCN(C[C@@H]2CN(C3Cc4ccccc4C3)C[C@@H]2CO)CC1	-4.9%
CCn1cnnc1CNC(=O)c1cc(Cl)ccc1O	22.7%
CC(=O)c1ccc(CNC(=O)c2cc(C)nn2C)nc1C	3.42%
Cc1oc(C)c(C(=O)NCc2cccc(C(N)=O)c2)c1C	-4.54%
COCCN1C(=O)CC[C@@H]2[C@H]1CCN2S(=O)(=O)c1cccs1	20.8%
Cc1nnc(C(C)N(C)Cc2c(C)nn(-c3ccccc3)c2C)o1 (stereo not drawn)	-1.32%
CCN(C)c1ncnc2c1CCN(C(=O)c1ccc(C)o1)CC2	-11.3%
CN1CCN([C@H]2COC[C@@H]3CN(Cc4cccnc4)C[C@@H]32)CC1	-8.25%
CCc1nc(C2CCCN2C(=O)C2=COCC2)no1 (stereo not drawn)	6.98%

Compound	cytotoxicity at 70.5 h
CC(C)c1nnc(NC(=O)NC2CCN(Cc3ccccc3)C2)s1 (stereo not drawn)	-2.21%
COc1ccc(-c2ccccc2CCN)c(OC)c1	-10.1%
Cc1nnc(CN2CCN(CC(O)c3cccc(F)c3)CC2)n1C (stereo not drawn)	-15.6%
Cc1ccc(O)c(C(=O)N2CCC3(CCCNC3)C2)c1 (stereo not drawn)	-7.79%
Cc1cnc(NCCCN2CCc3ccccc32)nc1	-3.85%
CC(=O)N1CCOCC2(CCCNC2)C1 (stereo not drawn)	-9.88%
O=C(Cc1cccc2ccccc12)N1CCC(Nc2cccnn2)CC1	-7.06%
CC(c1ccncc1)N(C)C(=O)NCCOc1ccc(C#N)cc1 (stereo not drawn)	16.9%
Cc1n[nH]c(C2CN(C(=O)c3cc(Cl)c[nH]3)CCO2)n1 (stereo not drawn)	-3.9%
COc1ccc(-c2nnc(SCC(=O)NCC(C)C)[nH]2)c(OC)c1	-7.35%
Cc1ccc2c(c1)C(NC(=O)N(C)C)CC21CCN(CC2CC2)CC1 (stereo not drawn)	-9.46%
Cc1ccc(N2CCN(CC3CC3)C3(CCN(C(C)C)CC3)C2=O)cn1	-5.52%
COCCN1C(=O)C[C@H]2[C@H]1CCN2Cc1ccccc1	-4.06%
Cc1cnn(CCNCC(=O)N2CCN(c3ncccn3)CC2)c1	-4.23%
Cc1ccc2nc(C(=O)N3C[C@@H](C(=O)O)[C@H](c4cccnc4)C3)cn2c1	-5.46%
Cc1n[nH]cc1CNC(=O)Nc1cccc(OCC(F)(F)F)c1	-6.62%
Cc1ncc(C(=O)N2CC[C@@]3(O)CCN(C(=O)N(C)C)C[C@H]3C2)cn1	-12.2%
CN(C)C(=O)Cn1c2c(ccc1=O)CC(NCc1ccoc1)CC2 (stereo not drawn)	1.44%
CCn1cncc1CNC(=O)c1ccc(C2CCCN2C(=O)COC)s1 (stereo not drawn)	-12%
Cc1c(C(N)=O)sc2nc(C(F)(F)F)ccc12	19.9%
COc1ccc(OC)c(C(=O)Nc2cccnc2-n2cncn2)c1	-10.9%
O=c1cc(C2CCNCC2)nc(CCCc2ccccc2)[nH]1	-3.39%
Cc1cc(CN(C)C(=O)NC(C)Cc2ccco2)no1 (stereo not drawn)	-3.4%

Compound	cytotoxicity at 70.5 h
COCCCNC(=O)c1cc(-c2cnc(N3CCOCC3)nc2)cn1C	-6.15%
CN1CCCC1CCNC(=O)c1ccccc1-n1cnc(CN)c1 (stereo not drawn)	0.899%
Cc1ccsc1CN1CCn2c(COc3cccnc3)cnc2C1C (stereo not drawn)	-9.93%
CCn1ncc(CN2C[C@@H]3CCCN3C[C@@H]2CCSC)c1C	-6.31%
CC(C)c1nc(CN(C)C(=O)c2ccc(CN3CCCCC3)cc2)cs1	-7.38%
COCCNc1ncc(-c2cccc(OC)c2)c(-c2nccn2C)n1	-7.42%
CC1(C)CN(C(=O)c2occc2COc2cccc(C#N)c2)CCO1	3.19%
CCc1nc(CN2CCCN(C(=O)C(CC)OC)CC2)cs1 (stereo not drawn)	6.03%
O=C(CCc1ccc(F)cc1)NS(=O)(=O)c1ccc2c(c1)OCCO2	-4.67%
CCc1ccc(CN2CC[C@H]3C[C@H](c4nnc(C)[nH]4)O[C@@H]3C2)o1	-1.93%
CC(Oc1ccccc1)C(=O)N1CCCN(Cc2nccn2C)CC1 (stereo not drawn)	-10.4%
CCc1c(C)n(CC(=O)OC)c2nc3ccccc3n2c1=O	-14.1%
Cc1noc(C)c1C(=O)NCc1ccc(N2CCCCCC2)nc1	-6.77%
Cc1cc(=O)n2ncnc2n1CC(O)c1ccccc1 (stereo not drawn)	-17.2%
O=c1cc(Cn2ccnc2)nc2n1CCCN(Cc1cccs1)C2	-16.6%
CNc1ccnc(NCCC(=O)Nc2ccccc2C)n1	-4.65%
CN(C)C(=O)N1CCOCC2(CCN(c3ccccn3)C2)C1 (stereo not drawn)	-5.46%
COC(C(=O)NC1CC1)c1ccccc1 (stereo not drawn)	28.7%
O=C(C1CCS(=O)(=O)C1)N1CCN(c2cnccn2)CC1 (stereo not drawn)	13%
CCc1noc(C(C)N(C)Cc2cc(Br)ccc2OC)n1 (stereo not drawn)	-15.2%
COCCN1C2(CCN(Cc3nccs3)C2)c2ccccc2S1(=O)=O (stereo not drawn)	-12.7%
